The assay has as its target T1, recombinant PDE IVA enzyme (Homo sapiens, UniProt P27815).
T1 construct: made in house; host or cells: yeast (inducible vector)
The assay can be described thus: Isolated Recombinant Human PDE IVA Enzyme. The conditions noted are these: 0.1 μM [3H]-cAMP, pH 7.5, 30° C. The assay is classed as biochemical. From the text:
1. Isolated Recombinant Human PDE IVA Enzyme
A gene encoding human PDE IV has been cloned from human monocytes (Livi, et al., 1990, Molecular and Cellular Biology, 10, 2678). Using similar procedures we have cloned human PDE IV genes from a number of sources including eosinophils, neutrophils, lymphocytes, monocytes, brain and neuronal tissues. These genes have been transfected into yeast using an inducible vector and various recombinant proteins have been expressed which have the biochemical characteristics of PDE IV (Beavo and Reifsnyder, 1990, TIPS, 11, 150). These recombinant enzymes, particularly the human eosinophil recombinant PDE IVA, have been used as the basis of a screen for potent, selective PDE IV inhibitors.
The enzymes were purified to isoenzyme homogeneity using standard chromatographic techniques.
Phosphodiesterase activity was assayed as follows. The reaction was conducted in 150 μl of standard mixture containing (final concentrations): 50 mM 2-[[tris(hydroxymethyl)methyl]amino]-1-ethanesulphonic acid (TES) --NaOH buffer (pH 7.5), 10 mM MgCl2, 0.1 μM [^3 H]-cAMP and vehicle or various concentrations of the test compounds. […] Recovery of [^3 H]-5'AMP was determined using the [^14 C]-5'AMP and all assays were conducted in the linear range of the reaction. Results were expressed as IC50 values.

Molecules are shown by their SMILES.

T1 sequence (P27815 whole entry): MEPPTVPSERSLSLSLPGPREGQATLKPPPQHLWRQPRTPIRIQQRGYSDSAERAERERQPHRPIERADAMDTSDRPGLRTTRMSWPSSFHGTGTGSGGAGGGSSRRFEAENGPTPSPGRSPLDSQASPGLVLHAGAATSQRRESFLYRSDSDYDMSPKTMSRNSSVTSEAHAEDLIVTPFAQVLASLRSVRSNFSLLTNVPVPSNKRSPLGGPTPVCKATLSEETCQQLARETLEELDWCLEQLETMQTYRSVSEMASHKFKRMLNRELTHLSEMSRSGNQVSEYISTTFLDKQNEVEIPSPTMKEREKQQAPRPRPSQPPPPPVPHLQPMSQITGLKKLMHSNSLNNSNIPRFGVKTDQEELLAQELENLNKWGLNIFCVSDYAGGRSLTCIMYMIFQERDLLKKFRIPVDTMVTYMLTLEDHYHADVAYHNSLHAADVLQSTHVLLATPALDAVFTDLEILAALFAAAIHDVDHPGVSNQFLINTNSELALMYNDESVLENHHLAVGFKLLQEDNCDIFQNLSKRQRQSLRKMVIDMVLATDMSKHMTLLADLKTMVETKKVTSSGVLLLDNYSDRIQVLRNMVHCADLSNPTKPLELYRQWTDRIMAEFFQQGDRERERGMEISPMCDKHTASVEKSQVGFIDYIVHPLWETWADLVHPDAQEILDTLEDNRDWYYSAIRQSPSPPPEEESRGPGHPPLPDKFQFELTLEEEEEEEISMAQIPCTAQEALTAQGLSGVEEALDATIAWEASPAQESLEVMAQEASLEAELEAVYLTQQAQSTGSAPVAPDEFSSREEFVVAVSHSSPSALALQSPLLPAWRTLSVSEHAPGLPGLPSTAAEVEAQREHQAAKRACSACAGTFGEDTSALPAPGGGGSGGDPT

As usually defined, the IC50 is the concentration that gives 50% inhibition. On to `CNC(=NC#N)Nc1cccc([C@@H](Cc2ccncc2)c2ccc(OC)c(OC3CCCC3)c2)c1` [Example 4, (R)-N"-Cyano-N'-{3-[1-[3-cyclopentyloxy-4-methoxyphenyl]-2-(4-pyridinyl)ethyl]phenyl}-N-methylamine], for which the concentration for half-maximal inhibition (IC50) turned out to be 0.5 nM.
As to `CNC(=C[N+](=O)[O-])Nc1cccc([C@@H](Cc2ccncc2)c2ccc(OC)c(OC3CCCC3)c2)c1` [Example 2, (R)-N-{(EIZ)-1-{3-[1-[3-Cyclopentyloxy-4-methoxyphenyl]-2-(4-pyridinyl)ethyl]anilino}-2-nitroethenyl}-N-methylamine], the half-inhibitory concentration (IC50) came out at 3.3 nM.

Values taken from patent publication US5859034A, “Tri-substituted phenyl compounds which have useful pharmaceutical activity” (Celltech Therapeutics, Limited, priority 1996, dated 1999).
